Key:
Homo sapiens [1] = species: Homo sapiens; assay: Ability to inhibit cholesterol biosynthesis from [14C]acetate in cultured human skin fibroblasts at the concentration of 1 nM; assay type: functional
Homo sapiens [2] = species: Homo sapiens; assay: Ability to inhibit cholesterol biosynthesis from [14C]acetate in cultured human skin fibroblasts at the concentration of 1 uM; assay type: functional
Homo sapiens [3] = species: Homo sapiens; assay: Ability to inhibit cholesterol biosynthesis from [14C]acetate in cultured human skin fibroblasts at the concentration of 10 nM; assay type: functional
Homo sapiens [4] = species: Homo sapiens; assay: Ability to inhibit cholesterol biosynthesis from [14C]acetate in cultured human skin fibroblasts at the concentration of 100 nM; assay type: functional
Homo sapiens [5] = species: Homo sapiens; assay: Ability to inhibit cholesterol biosynthesis from [14C]acetate in cultured human skin fibroblasts at the concentration of 10 uM; assay type: functional
[6] = biological target: T1, 3-hydroxy-3-methylglutaryl-coenzyme A reductase (Rattus norvegicus, UniProt P51639); assay: Binding affinity was determined against purified rat liver HMG-coA reductase enzyme
T1 sequence (P51639 whole entry): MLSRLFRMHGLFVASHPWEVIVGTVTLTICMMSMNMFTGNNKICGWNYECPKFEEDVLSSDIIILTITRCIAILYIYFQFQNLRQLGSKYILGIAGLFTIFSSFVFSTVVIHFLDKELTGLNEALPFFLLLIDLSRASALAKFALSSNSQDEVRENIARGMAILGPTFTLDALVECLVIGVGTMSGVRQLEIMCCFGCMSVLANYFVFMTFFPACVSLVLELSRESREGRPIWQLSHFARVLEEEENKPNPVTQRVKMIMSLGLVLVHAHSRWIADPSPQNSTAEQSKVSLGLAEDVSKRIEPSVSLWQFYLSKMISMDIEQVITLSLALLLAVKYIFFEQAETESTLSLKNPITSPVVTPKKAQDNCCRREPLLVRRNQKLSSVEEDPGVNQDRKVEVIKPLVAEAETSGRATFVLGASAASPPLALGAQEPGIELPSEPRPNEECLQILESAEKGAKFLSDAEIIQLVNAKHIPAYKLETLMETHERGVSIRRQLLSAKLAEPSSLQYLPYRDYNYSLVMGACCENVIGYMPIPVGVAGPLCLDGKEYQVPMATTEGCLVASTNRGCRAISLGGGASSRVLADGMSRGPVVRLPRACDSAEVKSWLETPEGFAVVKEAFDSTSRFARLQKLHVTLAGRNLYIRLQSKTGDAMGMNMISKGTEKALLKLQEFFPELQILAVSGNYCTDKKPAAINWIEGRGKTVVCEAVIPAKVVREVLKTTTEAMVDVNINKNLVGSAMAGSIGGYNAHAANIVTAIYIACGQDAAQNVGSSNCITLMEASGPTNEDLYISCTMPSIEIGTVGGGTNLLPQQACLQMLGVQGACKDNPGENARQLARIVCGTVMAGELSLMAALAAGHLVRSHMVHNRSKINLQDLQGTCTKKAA

CC[C@H](C)C(=O)O[C@H]1CCC=C2C=C[C@H](C)[C@H](CC[C@@H]3C[C@@H](O)CC(=O)O3)[C@H]21 [MEVASTATIN]
inhibition at 0.001 µM (Homo sapiens [1]): 50%
inhibition at 1 µM (Homo sapiens [2]): 95%
inhibition at 0.01 µM (Homo sapiens [3]): 80%
inhibition at 0.1 µM (Homo sapiens [4]): 90%
inhibition at 10 µM (Homo sapiens [5]): 100%
Ki [6]: ~1 nM
